From patent publication US5114464A, “4-quinoxalinyloxyphenoxyalkylinitrile herbicides” (Uniroyal Chemical Company, Inc., priority 1990, dated 1992)

Legend:
green foxtail [1] = assay: Postemergence control of green foxtail (Table II); format: in vivo, Setaria viridis (L.) Beauv.; conditions: 3000 ppm, two weeks after treatment
Protocol: (§1) To illustrate the effectiveness of the Compounds 1 and 2 of this invention as preemergence herbicides, 300 mg of each compound were dissolved in 10 ml acetone to which 30 mg of an emulsifying agent, ethoxylated sorbitan monolaurate, were added. The solution was diluted to 100 ml with distilled water. Ten milliliters of the 3000 ppm solution were diluted to 250 ppm with distilled water. The chemical was applied at the rate of 10 lb/A (11.2 kg/ha) by drenching 46 ml of the 250 ppm solution on the surface of soil in 41/2inch (11.25 cm) plastic pots wherein seeds of the following weeds had been planted: velvet leaf (Abutilon theoohrasti Medic.) (VL), prickly sida (sida soinosa L.) (PS), tall morningglory (Ioomea purourea L. Roth) (TM), switchgrass (Panicum viroatum L.) (SG), barnyard grass (Echinolchloa crus-oalli (L.) Beauv.) (BG), and green foxtail (Setaria viridis) (L.) Beauv.) (GF). The percent control of the weeds compared to untreated checks was determined two weeks after treatment.
(§2) To test the effectiveness of Compounds 1 and 2 of this invention as postemergence herbicides, a 3000 ppm solution of each compound (produced in accordance with the process described under Example 3) was atomized employing a DEVILBISS [trademark] sprayer, wetting the foliage to the drip point. […] The percent weed control was evaluated two weeks after treatment.

weeds [2] = assay: Postemergence control, summary statement; format: in vivo; conditions: 3000 ppm
Protocol: as §1, §2

prickly sida [3] = assay: Preemergence control of prickly sida (Table I); format: in vivo, sida soinosa L.; conditions: 11.2 kg/ha, two weeks after treatment
Protocol: as §1

switchgrass [4] = assay: Postemergence selectivity, greenhouse: switchgrass control (Table III); format: in vivo, Panicum viroatum L.; conditions: 250 ppm, treated May 26, rated Jun. 12
Protocol: as §1
(§3) To illustrate the effectiveness of Compound 1 of this invention as a corn-safe selective postemergence herbicide, the 3000 ppm solution prepared as described in Example 3 was diluted with distilled water to 250 ppm and applied to foliage as described in Example 3. The commercial product Hoelon 3EC® (Hoechst) was included as a standard. […] The percent weed control and crop injury was determined on Jun. […]

barnyard grass [5] = assay: Postemergence selectivity, greenhouse: barnyard grass control (Table III); format: in vivo, Echinolchloa crus-oalli (L.) Beauv.; conditions: 250 ppm, treated May 26, rated Jun. 12
Protocol: as §1, §3

switchgrass [6] = assay: Preemergence control of switchgrass (Table I); format: in vivo, Panicum viroatum L.; conditions: 11.2 kg/ha, two weeks after treatment
Protocol: as §1

weeds [7] = assay: Preemergence control, summary statement; format: in vivo; conditions: 11.2 kg/ha
Protocol: as §1

green foxtail [8] = assay: Preemergence control of green foxtail (Table I); format: in vivo, Setaria viridis (L.) Beauv.; conditions: 11.2 kg/ha, two weeks after treatment
Protocol: as §1

Giant foxtail = assay: Postemergence selectivity, field test: Giant foxtail control (Table IV); format: in vivo; conditions: 33 days after treatment
Protocol: (§4) To further illustrate the effectiveness of Compound 1 of this invention as a corn-safe selective postemergence herbicide, field tests were run in which five corn hybrids (designated C9979, C6114, C8004 and C1914 by the Independent Professional Seedsmans Association, and Pioneer 3295) along with two grass weeds (Giant foxtail, "GF"; and Barnyard grass, "BG") were planted in an Illinois field on April 24. The crops were treated with various amounts of Compound 1 in early Jun., and the amount of crop control was evaluated 33 days after treatment compared to an untreated control. The active ingredient was formulated as follows: […]
(§5) That produces a formulation containing 10% active ingredient by weight. The required amount of formulation to produce the indicated rate per acre is added to water, mixed with one quart of an adjuvant containing 83% mineral oil and 17% emulsifiers, then brought up to a total spray volume of 20 gallons per acre with water.

grass weeds [9] = assay: Postemergence selectivity greenhouse (Example 5), summary for grass weeds; format: in vivo; conditions: 250 ppm
Protocol: as §1, §3

cotton = assay: Postemergence selectivity, greenhouse: cotton injury (Table III); format: in vivo; conditions: 250 ppm, treated May 26, rated Jun. 12
Protocol: as §1, §3

corn hybrids = assay: Postemergence selectivity, field test: corn hybrids (Table IV); format: in vivo; conditions: for Percent corn crop control (injury): 33 days
Protocol: as §4, §5

velvet leaf [10] = assay: Postemergence control of velvet leaf (Table II); format: in vivo, Abutilon theoohrasti Medic.; conditions: 3000 ppm, two weeks after treatment
Protocol: as §1, §2

grass weeds [11] = assay: Postemergence selectivity field test (Example 6), summary for grass weeds; format: in vivo; conditions: 0.125 to 0.50 lb/a
Protocol: as §4, §5

barnyard grass [12] = assay: Preemergence control of barnyard grass (Table I); format: in vivo, Echinolchloa crus-oalli (L.) Beauv.; conditions: 11.2 kg/ha, two weeks after treatment
Protocol: as §1

switchgrass [13] = assay: Postemergence control of switchgrass (Table II); format: in vivo, Panicum viroatum L.; conditions: 3000 ppm, two weeks after treatment
Protocol: as §1, §2

barnyard grass [14] = assay: Postemergence control of barnyard grass (Table II); format: in vivo, Echinolchloa crus-oalli (L.) Beauv.; conditions: 3000 ppm, two weeks after treatment
Protocol: as §1, §2

soybean = assay: Postemergence selectivity, greenhouse: soybean injury (Table III); format: in vivo; conditions: 250 ppm, treated May 26, rated Jun. 12
Protocol: as §1, §3

tall morningglory [15] = assay: Preemergence control of tall morningglory (Table I); format: in vivo, Ioomea purourea L. Roth; conditions: 11.2 kg/ha, two weeks after treatment
Protocol: as §1

corn = assay: Postemergence selectivity, greenhouse: corn injury (Table III); format: in vivo; conditions: 250 ppm
Protocol: as §1, §3

velvet leaf [16] = assay: Preemergence control of velvet leaf (Table I); format: in vivo, Abutilon theoohrasti Medic.; conditions: 11.2 kg/ha, two weeks after treatment
Protocol: as §1

green foxtail [17] = assay: Postemergence selectivity, greenhouse: green foxtail control (Table III); format: in vivo, Setaria viridis (L.) Beauv.; conditions: 250 ppm, treated May 26, rated Jun. 12
Protocol: as §1, §3

tall morningglory [18] = assay: Postemergence control of tall morningglory (Table II); format: in vivo, Ioomea purourea L. Roth; conditions: 3000 ppm, two weeks after treatment
Protocol: as §1, §2

Barnyard grass [19] = assay: Postemergence selectivity, field test: Barnyard grass control (Table IV); format: in vivo; conditions: 33 days after treatment
Protocol: as §4, §5

prickly sida [20] = assay: Postemergence control of prickly sida (Table II); format: in vivo, sida soinosa L.; conditions: 3000 ppm, two weeks after treatment
Protocol: as §1, §2

Q: How did the “% Control GF” value (green foxtail [1]) turn out when `N#CCOc1ccc(Oc2cnc3cc(Cl)ccc3n2)cc1` [Compound 1, 2-[4-(6-chloro-2-quinoxalinyloxy)phenoxy]acetonitrile] was run?
A: 9%

Q: What about the “postemergent herbicidal control” value (weeds [2]) of the same compound?
A: desirable postemergent herbicidal control

Q: What about the “% Control PS” value (prickly sida [3]) of the same compound?
A: 0%

Q: What about the “Percent weed control SG” value (switchgrass [4]) of the same compound?
A: 100%

Q: What about the “Percent Weed Control BG” value (barnyard grass [5]) of the same compound?
A: 100%

Q: And the “% Control SG” value (switchgrass [6])?
A: 50%

Q: And the “herbicidal efficacy” value (weeds [7])?
A: good to excellent herbicidal efficacy

Q: And the “% Control GF” value (green foxtail [8])?
A: 90%

Q: And the “Percent Weed Control GF” value (Giant foxtail; 0.125 lb/a)?
A: 99.3%

Q: What about the “Percent Weed Control GF” value (Giant foxtail; 0.25 lb/a) of the same compound?
A: 100%

Q: And the “Percent Weed Control GF” value (Giant foxtail; 0.50 lb/a)?
A: 100%

Q: What about the “control of several grass weeds” value (grass weeds [9]) of the same compound?
A: good control of several grass weeds

Q: And the “Percent crop injury COTTON” value (cotton)?
A: 0%

Q: What about the “corn safety” value (corn hybrids; 0.125 to 0.50 lb/a) of the same compound?
A: substantially innocuous to corn

Q: What about the “Percent corn crop control (injury)” value (corn hybrids; corn hybrid C1914, 0.125 lb/a) of the same compound?
A: 0%

Q: And the “Percent corn crop control (injury)” value (corn hybrids; corn hybrid C1914, 0.25 lb/a)?
A: 0%

Q: What about the “Percent corn crop control (injury)” value (corn hybrids; corn hybrid C1914, 0.50 lb/a) of the same compound?
A: 0%

Q: And the “Percent corn crop control (injury)” value (corn hybrids; corn hybrid C6114, 0.125 lb/a)?
A: 0%

Q: And the “Percent corn crop control (injury)” value (corn hybrids; corn hybrid C6114, 0.25 lb/a)?
A: 0%

Q: What about the “Percent corn crop control (injury)” value (corn hybrids; corn hybrid C6114, 0.50 lb/a) of the same compound?
A: 0%

Q: What about the “Percent corn crop control (injury)” value (corn hybrids; corn hybrid C8004, 0.125 lb/a) of the same compound?
A: 0%

Q: What about the “Percent corn crop control (injury)” value (corn hybrids; corn hybrid C8004, 0.25 lb/a) of the same compound?
A: 0%

Q: And the “Percent corn crop control (injury)” value (corn hybrids; corn hybrid C8004, 0.50 lb/a)?
A: 0%

Q: What about the “Percent corn crop control (injury)” value (corn hybrids; corn hybrid C9979, 0.125 lb/a) of the same compound?
A: 0%

Q: What about the “Percent corn crop control (injury)” value (corn hybrids; corn hybrid C9979, 0.25 lb/a) of the same compound?
A: 0%

Q: What about the “Percent corn crop control (injury)” value (corn hybrids; corn hybrid C9979, 0.50 lb/a) of the same compound?
A: 0%

Q: What about the “Percent corn crop control (injury)” value (corn hybrids; corn hybrid Pioneer 3295, 0.125 lb/a) of the same compound?
A: 0%

Q: What about the “Percent corn crop control (injury)” value (corn hybrids; corn hybrid Pioneer 3295, 0.25 lb/a) of the same compound?
A: 0%

Q: And the “Percent corn crop control (injury)” value (corn hybrids; corn hybrid Pioneer 3295, 0.50 lb/a)?
A: 0%

Q: And the “% Control VL” value (velvet leaf [10])?
A: 0%

Q: And the “control of several grass weeds” value (grass weeds [11])?
A: good control of several grass weeds

Q: And the “% Control BG” value (barnyard grass [12])?
A: 100%

Q: What about the “% Control SG” value (switchgrass [13]) of the same compound?
A: 100%

Q: What about the “% Control BG” value (barnyard grass [14]) of the same compound?
A: 100%

Q: What about the “Percent crop injury SOYBEAN” value (soybean) of the same compound?
A: 0%

Q: What about the “% Control TM” value (tall morningglory [15]) of the same compound?
A: 0%

Q: What about the “corn safety” value (corn) of the same compound?
A: substantially innocuous to corn

Q: And the “Percent crop injury CORN” value (corn; treated May 26, rated Jun. 12)?
A: 0%

Q: What about the “% Control VL” value (velvet leaf [16]) of the same compound?
A: 0%

Q: What about the “Percent Weed Control GF” value (green foxtail [17]) of the same compound?
A: 90%

Q: What about the “% Control TM” value (tall morningglory [18]) of the same compound?
A: 0%

Q: What about the “Percent Weed Control BG” value (Barnyard grass [19]; 0.125 lb/a) of the same compound?
A: 30.0%

Q: What about the “Percent Weed Control BG” value (Barnyard grass [19]; 0.25 lb/a) of the same compound?
A: 43.3%

Q: And the “Percent Weed Control BG” value (Barnyard grass [19]; 0.50 lb/a)?
A: 90.0%

Q: And the “% Control PS” value (prickly sida [20])?
A: 0%
